Laboratory results from the NIST ThermoML archive (doi:10.1021/je060271a).

Conditions: 283.15 K, Liquid, Vibrating tube method

CCCCCCCC(=O)OCC(COC(=O)CCCCCCC)(COC(=O)CCCCCCC)COC(=O)CCCCCCC [pentaerythritol tetraoctanoate]
Conditions | mass density [kg/m3]
24659 kPa | 983.6
24685 kPa | 983.7
24711 kPa | 983.7
24742 kPa | 983.8
24769 kPa | 983.8
24795 kPa | 983.8
24827 kPa | 983.7
24853 kPa | 983.8
24885 kPa | 983.8
24912 kPa | 983.7
24938 kPa | 983.8
24965 kPa | 983.8
24997 kPa | 983.8
25024 kPa | 983.8
25051 kPa | 983.9
25084 kPa | 983.9
25110 kPa | 983.9
25143 kPa | 983.8
25170 kPa | 983.9
25197 kPa | 984
25229 kPa | 984
25256 kPa | 984
25284 kPa | 984
25312 kPa | 984
25344 kPa | 984
25372 kPa | 984
25405 kPa | 983.9
25433 kPa | 984.1
25461 kPa | 984.1
25494 kPa | 984.1
25521 kPa | 984.2
25549 kPa | 984.1
25583 kPa | 984.1
25611 kPa | 984.2
25639 kPa | 984.2
25673 kPa | 984.2
25701 kPa | 984.1
25730 kPa | 984.4
25758 kPa | 984.3
25792 kPa | 984.2
25821 kPa | 984.3
25850 kPa | 984.3
25884 kPa | 984.3
25912 kPa | 984.3
25941 kPa | 984.2
25976 kPa | 984.3
26004 kPa | 984.3
26034 kPa | 984.5
26069 kPa | 984.4
26098 kPa | 984.3
26126 kPa | 984.4
26162 kPa | 984.4
26191 kPa | 984.5
26220 kPa | 984.4
26250 kPa | 984.4
26286 kPa | 984.5
26315 kPa | 984.5
26350 kPa | 984.6
26380 kPa | 984.6
26411 kPa | 984.6
26442 kPa | 984.6
26478 kPa | 984.6
26508 kPa | 984.6
26538 kPa | 984.6
26568 kPa | 984.6
26604 kPa | 984.5
26634 kPa | 984.6
26666 kPa | 984.6
26702 kPa | 984.7
26733 kPa | 984.7
26770 kPa | 984.7
26802 kPa | 984.7
26834 kPa | 984.8
26866 kPa | 984.8
